The compounds below were run against T1, human IRAK4 (Homo sapiens, UniProt Q9NWZ3) (assay: Human IRAK4 kinase activity inhibition assay (IRAK4 TR-FRET assay)). Settings: 1 mM ATP, GST-human IRAK4, average or median values.
T1 construct: GST (N); made in house; host or cells: baculovirus-infected Hi5 (BTI-TN-5B1-4) insect cells
T1 sequence (Q9NWZ3 1-460): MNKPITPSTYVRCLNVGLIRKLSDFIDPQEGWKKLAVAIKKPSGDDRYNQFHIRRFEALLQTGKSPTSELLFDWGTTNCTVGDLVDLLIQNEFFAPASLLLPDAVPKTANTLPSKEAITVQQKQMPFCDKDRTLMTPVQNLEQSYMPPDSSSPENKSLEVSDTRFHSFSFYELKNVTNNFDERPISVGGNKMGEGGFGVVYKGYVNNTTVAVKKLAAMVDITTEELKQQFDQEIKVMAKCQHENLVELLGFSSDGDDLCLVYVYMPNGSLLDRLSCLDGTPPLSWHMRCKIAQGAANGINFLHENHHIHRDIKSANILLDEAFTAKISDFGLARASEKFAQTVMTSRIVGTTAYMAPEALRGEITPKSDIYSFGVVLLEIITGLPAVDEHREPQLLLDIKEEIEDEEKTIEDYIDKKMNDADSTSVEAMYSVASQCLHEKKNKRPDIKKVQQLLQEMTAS
Type: biochemical
Method: The IRAK4-inhibitory activity of the inventive substances was measured in the IRAK4 TR-FRET assay (TR-FRET = Time Resolved Fluorescence Resonance Energy Transfer) described hereinafter.
Recombinant fusion protein from N-terminal GST (glutathione S-transferase) and human IRAK4, expressed in baculovirus-infected insect cells (Hi5, BTI-TN-5B1-4, cell line purchased from Invitrogen, catalogue No. B855-02) and purified via affinity chromatography, was used as enzyme. The substrate used for the kinase reaction was the biotinylated peptide biotin-Ahx-[…] (C-terminus in amide form) which can be purchased, for example, from Biosyntan GmbH (Berlin-Buch). For the assay, 11 different concentrations in the range from 20 µM to 0.073 nM were prepared from a 2 mM DMSO solution of the test substance. 50 nl of the respective 100fold concentrated test compound solutions in DMSO were pipetted into a black low-volume 384-well microtitre plate or a black 1536-well microtiter plate (both Greiner Bio-One, Frickenhausen, Germany), 2 µl of a solution of IRAK4 in assay buffer [50 mM HEPES pH 7.5, 5mM MgCl2, 1.0 mM dithiothreitol, 30 µM activated sodium orthovanadate, 0.1% (w/v) of bovine gamma-globulin (BGG) 0.04% (v/v) nonidet-P40 (Sigma)] were added and the mixture was incubated for 15 min to allow prebinding of the substances to the enzyme prior to the kinase reaction. […] The concentration of the IRAK4 was adjusted to the respective activity of the enzyme and set such that the assay was carried out in the linear range. Typical concentrations were in the order of about 0.2 nM. The reaction was stopped by addition of 5 µl of a solution of TR-FRET detection reagents [0.1 µM streptavidin-XL665 (Cisbio Bioassays; France, catalogue No. 610SAXLG)] and 1.5 nM anti-phosphoserine antibody [Merck Millipore, "STK Antibody", catalogue No. 35-002] and 0.6 nM LANCE EU-W1024-labelled anti-mouse-IgG antibody (Perkin-Elmer, product No. AD0077; alternatively, it is possible to use a terbium cryptate-labelled anti-mouse-IgG antibody from Cisbio Bioassays) in aqueous EDTA solution (100 mM EDTA, 0.4 % [w/v] bovine serum albumin [BSA] in 25 mM HEPES pH 7.5). The resulting mixture was incubated at 22°C for 1 h to allow formation of a complex of the biotinylated phosphorylated substrate and the detection reagents. The amount of the phosphorylated substrate was then evaluated by measuring the resonance energy transfer from europium chelate-labelled anti-mouse-IgG antibody to streptavidin-XL665. To this end, the fluorescence emissions at 620 nm and 665 nm were measured after excitation at 350 nm in a TR-FRET measuring instrument, for example a Rubystar (BMG Labtechnologies, Offenburg, Germany) or a Viewlux (Perkin-Elmer). The ratio of the emissions at 665 nm and 622 nm was taken as a measure of the amount of phosphorylated substrate. The data were normalized (enzyme reaction without test substance = 0% inhibition; all other assay components but no enzyme = 100% inhibition).

SMILES	IC50 [nM]
CS(=O)(=O)[C@H]1C[C@H](Nc2nc(N3C[C@@H](O)[C@H](F)C3)c3cnn(-c4cccc(C(F)F)c4)c3n2)C1 (relative stereo) [II-16-1, rel-(3R,4R)-1-(1-[3-(difluoromethyl)phenyl]-6-{[trans-3-(methylsulfonyl)cyclobutyl]-amino)-1H-pyrazolo[3,4-d]pyrimidin-4-yl)-4-fluoropyrrolidin-3-ol]	1.36
C[C@H]1CN(c2nc(N[C@H]3C[C@H](S(C)(=O)=O)C3)nc3c2cnn3-c2cccc(C(F)F)c2)C[C@@H]1O (single isomer, unassigned) [II-17-3, (3R*,4S*)-1-(1-[3-(difluoromethyl)phenyl]-6-{[trans-3-(methylsulfonyl)cyclobutyl]amino}-1H-pyrazolo[3,4-d]pyrimidin-4-yl)-4-methylpyrrolidin-3-ol]	4.17
CC(C)(O)C1CCN(c2nc(NC3CCS(=O)(=O)C3)nc3c2cnn3-c2cccc(C(F)(F)F)c2)CC1 (single isomer, unassigned; (-)) [Example I-4-3, (-)-2-(1-{6-[(1,1-dioxidotetrahydrothiophen-3-yl)amino]-1-[3-(trifluoromethyl)phenyl]-1H-pyrazolo[3,4-d]pyrimidin-4-yl}piperidin-4-yl)propan-2-ol]	68.5
O=C1C[C@@H](Nc2nc(N3CC(N4CCOCC4)C3)c3cnn(-c4cccc(C(F)(F)F)c4)c3n2)CN1 [Example I-1-2, (4R)-4-({4-[3-(morpholin-4-yl)azetidin-1-yl]-1-[3-(trifluoromethyl)phenyl]-1H-pyrazolo-[3,4-d]pyrimidin-6-yl}amino)pyrrolidin-2-one]	84.5
CC(C)(O)C1CCN(c2nc(N[C@H]3CNC(=O)C3)nc3c2cnn3-c2cccc(C(F)(F)F)c2)CC1 [Example I-2-2, (4R)-4-({4-[4-(2-hydroxypropan-2-yl)piperidin-1-yl]-1-[3-(trifluoromethyl)phenyl]-1H-pyrazolo[3,4-d]pyrimidin-6-yl}amino)pyrrolidin-2-one]	31.4
CC(C)(O)C1CCN(c2nc(NC3CNC(=O)C3)nc3c2cnn3-c2cccc(C(F)(F)F)c2)CC1 (stereo not shown) [Example I-2-3, 4-({4-[4-(2-hydroxypropan-2-yl)piperidin-1-yl]-1-[3-(trifluoromethyl)phenyl]-1H-pyrazolo[3,4-d]pyrimidin-6-yl}amino)pyrrolidin-2-one]	9.69
CCC1(O)CN(c2nc(N[C@H]3CNC(=O)C3)nc3c2cnn3-c2cccc(C(F)(F)F)c2)C1 [Example I-3-2, (4R)-4-({4-(3-ethyl-3-hydroxyazetidin-1-yl)-1-[3-(trifluoromethyl)phenyl]-1H-pyrazolo[3,4-d]pyrimidin-6-yl}amino)pyrrolidin-2-one]	167
CC(C)(O)C1CCN(c2nc(NC3CCS(=O)(=O)C3)nc3c2cnn3-c2cccc(C(F)(F)F)c2)CC1 (stereo not shown) [Example I-4-1, 2-(1-{6-[(1,1-dioxidotetrahydrothiophen-3-yl)amino]-1-[3-(trifluoromethyl)phenyl]-1H-pyrazolo[3,4-d]pyrimidin-4-yl}piperidin-4-yl)propan-2-ol]	12.2
CC(C)(O)C1CCN(c2nc(N[C@@H]3CCC(=O)NC3)nc3c2cnn3-c2cccc(C(F)(F)F)c2)CC1 [Example I-7-1, (5R)-5-({4-[4-(2-hydroxypropan-2-yl)piperidin-1-yl]-1-[3-(trifluoromethyl)phenyl]-1H-pyrazolo[3,4-d]pyrimidin-6-yl}amino)piperidin-2-one]	11.4
CC(C)(O)C1CCN(c2nc(N[C@H]3CCC(=O)NC3)nc3c2cnn3-c2cccc(C(F)(F)F)c2)CC1 [Example I-7-2, (5S)-5-({4-[4-(2-hydroxypropan-2-yl)piperidin-1-yl]-1-[3-(trifluoromethyl)phenyl]-1H-pyrazolo[3,4-d]pyrimidin-6-yl}amino)piperidin-2-one]	33.8

Next, values leading:

IC50 [nM]	SMILES
178	NC1CCN(c2nc(N[C@H]3C[C@H](O)C3)nc3c2cnn3-c2cccc(C(F)(F)F)c2)CC1(F)F (mixture of isomers) [Example I-104, trans-3-({4-[(4RS)-4-amino-3,3-difluoropiperidin-1-yl]-1-[3-(trifluoromethyl)phenyl]-1H-pyrazolo[3,4-d]pyrimidin-6-yl}amino)cyclobutanol]
280	NC1CCN(c2nc(NC3CCS(=O)(=O)CC3)nc3c2cnn3-c2cccc(C(F)(F)F)c2)CC1(F)F (racemic) [Example I-105, 4-[(4RS)-4-amino-3,3-difluoropiperidin-1-yl]-N-(1,1-dioxidotetrahydro-2H-thiopyran-4-yl)-1-[3-(trifluoromethyl)phenyl]-1H-pyrazolo[3,4-d]pyrimidin-6-amine]
15.6	CC(C)(O)C1CCN(c2nc(N[C@@H]3CNC[C@H]3F)nc3c2cnn3-c2cccc(C(F)(F)F)c2)CC1 (relative stereo) [Example I-65, 2-[1-(6-{[rel-(3R,4R)-4-fluoropyrrolidin-3-yl]amino}-1-[3-(trifluoromethyl)phenyl]-1H-pyrazolo[3,4-d]pyrimidin-4-yl)piperidin-4-yl]propan-2-ol]
25	O[C@H]1COC[C@H]1Nc1nc(N2CC(N3CCOCC3)C2)c2cnn(-c3cccc(C(F)(F)F)c3)c2n1 (relative stereo) [Example I-70, rel-(3R,4R)-4-({4-[3-(morpholin-4-yl)azetidin-1-yl]-1-[3-(trifluoromethyl)phenyl]-1H-pyrazolo[3,4-d]pyrimidin-6-yl}amino)tetrahydrofuran-3-ol]
28	O[C@@H]1CC[C@@H]1Nc1nc(N2CC(N3CCOCC3)C2)c2cnn(-c3cccc(C(F)(F)F)c3)c2n1 (relative stereo) [Example I-73, rel-(1R,2S)-2-({4-[3-(morpholin-4-yl)azetidin-1-yl]-1-[3-(trifluoromethyl)phenyl]-1H-pyrazolo[3,4-d]pyrimidin-6-yl}amino)cyclobutanol]
14	O[C@@H]1CC[C@H]1Nc1nc(N2CC(N3CCOCC3)C2)c2cnn(-c3cccc(C(F)(F)F)c3)c2n1 (relative stereo) [Example I-75, rel-(1R,2R)-2-({4-[3-(morpholin-4-yl)azetidin-1-yl]-1-[3-(trifluoromethyl)phenyl]-1H-pyrazolo[3,4-d]pyrimidin-6-yl}amino)cyclobutanol]
76.8	CC(C)(O)C1CCN(c2nc(NC3CC(=O)NC3(C)C)nc3c2cnn3-c2cccc(C(F)(F)F)c2)CC1 (stereo not shown) [Example I-6, 4-({4-[4-(2-hydroxypropan-2-yl)piperidin-1-yl]-1-[3-(trifluoromethyl)phenyl]-1H-pyrazolo-[3,4-d]pyrimidin-6-yl}amino)-5,5-dimethylpyrrolidin-2-one]
41.4	CN1CC(Nc2nc(N3CCC(C(C)(C)O)CC3)c3cnn(-c4cccc(C(F)(F)F)c4)c3n2)CC1=O (stereo not shown) [Example I-8, 4-({4-[4-(2-hydroxypropan-2-yl)piperidin-1-yl]-1-[3-(trifluoromethyl)phenyl]-1H-pyrazolo[3,4-d]pyrimidin-6-yl}amino)-1-methylpyrrolidin-2-one]
59.5	CN1CC[C@@H](Nc2nc(N3CCC(C(C)(C)O)CC3)c3cnn(-c4cccc(C(F)(F)F)c4)c3n2)C1=O [Example I-9, (3R)-3-({4-[4-(2-hydroxypropan-2-yl)piperidin-1-yl]-1-[3-(trifluoromethyl)phenyl]-1H-pyrazolo[3,4-d]pyrimidin-6-yl}amino)-1-methylpyrrolidin-2-one]

From patent publication EP3800188A1, “SUBSTITUTED PYRAZOLOPYRIMIDINES AS IRAK4 INHIBITORS” (Bayer AG, priority 2019, dated 2021)
